Measured values: patent US20050079151A1, “Therapeutic agents for apoptosis-related diseases” (priority 1998, published 2005)
Like-named read-outs stand apart in the source and are kept apart here.

Key:
hippocampal neurocytes = conditions: cited from earlier work
Bcl-2 = test: Effect for enhancing Bcl-2 expression (Western blotting); assay type: cell-based; conditions: G401 cells, MK 100 ng/ml, no cisplatin
Protocol: The effect of MK on the expression of the Bcl-2 gene was examined. Six groups were prepared; the untreated group, the cisplatin (100 μM) treated group, the human MK (100 ng/ml) treated group, the human MK (100 ng/ml)+cisplatin (100 μM) group, the mouse MK (100 ng/ml) treated group, and the mouse MK (100 ng/ml)+cisplatin (100 μM) treated group.
G401 cells were seeded on a 3.5 cm-dish and cultured in 10% FBS/DMEM until the cells became almost confluent. The cells were washed twice and cultured in 0.1% FBS/DMEM overnight. Then, human MK or mouse MK (JP-A No. Hei 8-196293) was added to the MK treatment groups at 100 ng/ml and cultured for six hours. Cisplatin was added to the cisplatin treatment group to 100 μM, and cultured for 2 hours. After culturing, the cells were washed with 0.1% FBS/DMEM three times, cultured in 0.1% FBS/DMEM for 10 hours, and washed with PBS three times.
Two hundred microliters of buffer [1% Triton X-100, 150 mM NaCl, 10 mM Tris (pH 7.4), 1.0 mM EGTA, 0.5% NP-40, 1 mM PMSF, 0.1 μg/ml apiotinin, 40 nM Iewpeptin] were added to each dish and kept on ice for 20 min. The cells in each dish were detached by a scraper, and mixed 8 to 10 times using a syringe with a 26-gauge needle. The cells of each dish were centrifuged in a centrifuge tube at 4° C. at 12000 rpm for 30 min. The precipitated proteins were quantified (BCA Kit; PIERCE). The precipitate prepared from each dish (50 μg) was analyzed by Western blotting using anti-Bcl-2 monoclonal antibody (500×) (Dako; Denmark) and anti-mouse HRP antibody (Jackson Immuno Research) (FIG. 6). The band in each lane is numerically shown (FIG. 7).

Molecule	rescuing hippocampal neurocytes from delayed neuronal death (hippocampal neurocytes; 28 days after the injury (Ishimura et al. 1998))	dosage required for protection from delayed neuronal death (hippocampal neurocytes; intraventricular injection (Shigeno et al. 1991))	rescuing hippocampal neurocytes from delayed neuronal death (hippocampal neurocytes; seven days after development of the ischemic injury (Ishimura et al. 1998))	expression of Bcl-2 (Bcl-2)
NGF: neurotrophic factor reported in the literature to ameliorate delayed neuronal death	not effective	10 µg	effective	
mouse MK: mouse MK (JP-A No. Hei 8-196293) (protein, UniProt P12025 23-140, looked up) Midkine: KKKEKVKKGSECSEWTWGPCTPSSKDCGMGFREGTCGAQTQRVHCKVPCNWKKEFGADCKYKFESWGACDGSTGTKARQGTLKKARYNAQCQETIRVTKPCTSKTKSKTKAKKGKGKD				enhanced the expression of Bcl-2
